From patent US9402820B2, “Use of pyruvate or succinate to enhance the efficacy of a hypoxia activated prodrug for the treatment of tumors” (THE UNITED STATES OF AMERICA AS REPRESENTED BY THE …, priority 2011, dated 2016)

What was measured:
[1] = tested on: SCCVII (mouse squamous cell carcinoma) tumors; experiment: SCCVII tumor growth with TH-302 alone, pyruvate alone or in combination; format: in vivo; conditions: daily for 3 days
Experimental: (§1) Mouse legs bearing tumors were prepared by subcutaneously injecting 5×10^5 SCCVII (mouse squamous cell carcinoma) cells or 1×10^6 HT29 (human colon cancer) cells to the hind leg of C3H or athymic nude mice, respectively. When tumor size became 400-500 mm^3, treatments were initiated. Mice were treated daily for 3 days with hypoxia-activated prodrug TH-302 (100 mg/kg/day, i.p.) alone, pyruvate (1.15 mmol/kg/day, i.v.) alone, or TH-302 injection 30 min. after pyruvate injection. Treatments were started on day 7 (SCCVII; FIG. 6A) or day 8 (HT29; FIG. 6B). […] Tumor growth (volume/size in mm^3) was measured daily by caliper.

[2] = tested on: HT29 (human colon cancer) tumors; experiment: HT29 tumor growth with TH-302 alone or in combination with pyruvate; format: in vivo; conditions: TH-302 100 mg/kg/day i.p., pyruvate 1.15 mmol/kg/day i.v. 30 min before, daily for 3 days
Experimental: as §1

SCCVII solid tumors [3] = experiment: EPR imaging (EPRI) of tumor pO2 after i.v. pyruvate in SCC tumor-bearing mice; format: in vivo, mouse; conditions: for Median tumor pO2 value: before injection 11.8±1.3; for Percentage of hypoxic region (pO2<10 mmHg) in the tumors: before injection 39.7±9.8
Experimental: All animal experiments were carried out in compliance with the Guide for the care and use of laboratory animal resources (National Research Council, 1996) and approved by the National Cancer Institute Animal Care and Use Committee. Female C3H/Hen mice were supplied by the Frederick Cancer Research Center, Animal Production (Frederick, Md.). SCCVII solid tumors were formed by injecting 5×10^5 SCC cells subcutaneously into the right hind leg of C3H mice. Body weight measured before the experiments was 21-27 g. In EPRI and MRI measurements, mice were anesthetized by isoflurane (4% for induction and 2% for maintaining anesthesia) in medical air (750 mL/min) and positioned prone with their tumor-bearing legs placed inside the resonator. During the measurements, the breathing rate of the mice was monitored with a pressure transducer (SA Instruments Inc.) and maintained at 60±10 breaths per minute. Core body temperature was also monitored with a non-magnetic rectal temperature probe (FISO) and maintained at 37±1° C. with a flow of warm air. For administration of TAM and [1-^13C]pyruvate solution, a 30-gauge needle was cannulated into the tail vein and extended using polyethylene tubing (PE-10).
Technical details of the EPR scanner operating at 300 MHz, data acquisition based on the single-point imaging (SPI) modality, image reconstruction, and the oxygen mapping procedure were described previously (Matsumoto et al., Magn Reson Med, 55:1157-1163, 2006; and Matsumoto et al., J Clin Invest, 118:1965-1973, 2008). Isotonic [1-^13C]pyruvate solution (pH 7.4) was prepared by dissolving 30 μL of [1-^13C]pyruvic acid in 4.5 mL of alkaline solution containing 100 mg/L EDTA. After the mouse was placed in the resonator, TAM (OX063, GE Healthcare) was injected intravenously through the cannula placed in the tail vein. TAM was given as a 1.125 mmol/kg bolus followed by 0.04 mmol/kg/min continuous injection. After acquiring the first EPR data set, 1.15 mmol/kg bolus (300 μL of 96 mM) [1-^13C]pyruvate solution was injected intravenously through the cannula. EPRI measurements were carried out 30 minutes and 1 hour after [1-^13C]pyruvate injection. Then, the mouse was released. The mouse was anesthetized and canulated again, 1.125 mmol/kg TAM was injected to the mouse, and EPRI measurement was carried out 5 hours after the [1-^13C]pyruvate injection.
EPR signals were collected following the RF excitation pulses (60 ns, 80 W, 70° flip angle) using an analog digital converter (200 Msamples/s). EPR measurements were started 3 minutes after TAM injection, and it took 9 minutes to obtain a data set for a 3D image. The repetition time (TR) was 6.0 μs. The FIDs (free induction decays) were collected under a nested looping of the x, y, z gradients and each time point in the FID underwent phase modulation enabling 3D spatial encoding. In order to get reproducible values of T2* and to retain a more or less uniform image resolution, a set of 3 gradients was used, and data for corresponding images were collected in an interleaved fashion (Matsumoto et al., Magn Reson Med, 55:1157-1163, 2006). If the power spectrum of the pulse is uniform throughout the k-space for all the gradients used, the spatial resolution is simply defined by FOV (field of view) and the number of k-samples (elements in k-space).
Anatomical images of the tumor-bearing leg were obtained using 7 T MRI after the EPRI measurements. […] An identical parallel coil resonator (17 mm inner diameter and 25 mm long) with Q switch was used for both EPRI and MRI operating at 300 MHz (Matsumoto et al., J Clin Invest, 118:1965-1973, 2008).
MRI scans were conducted using a 7 T scanner controlled with ParaVision 5.0 (Bruker BioSpin MRI GmbH). […]

SCCVII solid tumors [4] = experiment: Immunohistochemical analysis with hypoxia marker pimonidazole in SCC tumors; format: in vivo, mouse; conditions: control mice 21.1±1.4, n=5
Experimental: A hypoxia marker, pimonidazole, was given to tumor-bearing mice intravenously 30 minutes before excising tumors. The mice were euthanized, and tumor tissues were removed from mice. The tumor tissues were fixed with 4% paraformaldehyde and frozen using ultracold ethanol. The frozen tumors were sectioned to 10 μm thick using a cryostat, and the sections were thaw-mounted on glass slides. After blocking non-specific binding sites with Protein Block Serum-Free reagent (Dako North America Inc., Carpinteria, Calif.), the slides were covered by rabbit anti-pimonidazole antisera (Natural Pharmacia International, Inc., Burlington, Mass.; 1:250) overnight at 4° C. The sections were incubated with Alexa Fluor 555 anti-rabbit secondary antibody (Invitrogen, Carlsbad, Calif.; 1:500). Then they were mounted on Prolong Gold antifade reagent with DAPI (Invitrogen). Fluorescence microscopic observation was performed using an Axiovert 200 inverted fluorescent microscope (Carl Zeiss), and images of tissues were captured using Image-Pro Plus Ver. 4.0 imaging software. The pimonidazole positive area was quantified using Image J software.

SCC tumor = experiment: Tumor growth after X-irradiation (12 Gy) with [1-13C]pyruvate injection; format: in vivo, mouse; conditions: X-irradiation 12 Gy 30 minutes after [1-13C]pyruvate injection; X-irradiation without pyruvate 6-7 days
From the text: Mice were fixed in the specially designed jig for X-irradiation, by which mice were restricted from moving without anesthesia. X-irradiation (12 Gy) was delivered to tumor-bearing leg 6 days after SCC tumor implantation using a XRAD-320 (Precision X-ray Inc.).
Hypoxia is a critical factor that determines tumor resistance to radiotherapy and some kinds of chemotherapy. Although the pyruvate-induced hypoxia is transient, the decrease in oxygen concentration may limit the efficacy of cancer therapy, if the cancer treatments are provided immediately after MRI with hyperpolarized [1-^13C]pyruvate. To elucidate the effect of exogenously injected pyruvate on radiotherapy, tumor growth was monitored after X-irradiation with and without [1-^13C]pyruvate injection (FIG. 4). X-irradiation (12 Gy) without pyruvate administration suppressed the tumor growth for 6-7 days compared with non-treated control group which received neither X-irradiation nor pyruvate administration. […] Secondary mechanisms such as activation of hypoxia inducible transcription factor-1 signaling during the pyruvate-induced transient hypoxia might partially contribute to the long lasting effect of pyruvate on radiotherapy in addition to the direct effect of oxygen concentration at the time of radiation. […]

[5] = SCCVII, TH-302 100 mg/kg/day i.p., pyruvate 1.15 mmol/kg/day i.v. 30 min before

Row | SMILES | Period of time until tumor becomes 2 times original tumor size [1, 5] | Period of time until tumor becomes 3 times original tumor size [1, 5] | effect on SCCVII tumor growth ([1]; treatment starting 7 days post-tumor implantation) | Period of time until tumor becomes 3 times original tumor size [2] | Period of time until tumor becomes 4 times original tumor size [2] | median pO2 value in tumor (SCCVII solid tumors [3]; 1-2 hours after hyperpolarized [1-13C]pyruvate 1.15 mmol/kg i.v. bolus, control tumor group 11.7±0.7, mean±SEM, n=4) | hypoxic fraction (pixels with pO2<10 mm Hg) (SCCVII solid tumors [3]; 1-2 hours after hyperpolarized [1-13C]pyruvate 1.15 mmol/kg i.v., control tumors 37.1±5.6, mean±SEM, n=4) | Median tumor pO2 value (SCCVII solid tumors [3]; 30 minutes after [1-13C]pyruvate 1.15 mmol/kg i.v., n=4) | decrease of tumor pO2 (SCCVII solid tumors [3]; 30 minutes after half dose (0.58 mmol/kg b. w.)) | Percentage of hypoxic region (pO2<10 mmHg) in the tumors (SCCVII solid tumors [3]; 30 minutes after pyruvate 1.15 mmol/kg i.v.) | Median tumor pO2 value (SCCVII solid tumors [3]; 1 hour after [1-13C]pyruvate 1.15 mmol/kg i.v., n=4) | Percentage of hypoxic region (pO2<10 mmHg) in the tumors (SCCVII solid tumors [3]; 1 hour after pyruvate 1.15 mmol/kg i.v.) | Median tumor pO2 value (SCCVII solid tumors [3]; 5 hours after [1-13C]pyruvate 1.15 mmol/kg i.v., n=4) | Percentage of hypoxic region (pO2<10 mmHg) in the tumors (SCCVII solid tumors [3]; 5 hours after pyruvate 1.15 mmol/kg i.v.) | Pimonidazole positive area in tumors (SCCVII solid tumors [4]; 1 hour after [1-13C]pyruvate injection) | Pimonidazole positive area in tumors (SCCVII solid tumors [4]; 5 hours after [1-13C]pyruvate injection) | delay in tumor growth (SCC tumor)
1 | Cn1c(COP(=O)(NCCBr)NCCBr)cnc1[N+](=O)[O-] [TH-302] | 3.4 days | 5.4 days | minor or small effect | 6.8 days | 8.4 days |  |  |  |  |  |  |  |  |  |  |  | 
2 | CC(=O)C(=O)O [pyruvate, 2-oxopropanoate] |  |  |  |  |  | 9.2±1.1 mmHg | 58.5±10.2% | 5.8±0.6 mmHg | 32% | 68.5±3.0% | 7.7±0.6 mmHg | 63.8±2.6% | 11.6±1.2 mmHg | 43.9±5.7% | 29.5±2.9% | 18.7±1.8% | 3 to 4 days
